Calls of active or inactive are those of the source. No cut-off for these calls is given here.
How the values were obtained:
PC-12 [1] = experiment: Cytotoxicity against rat PC12 cells at 25 uM after 24 hrs by MTT assay; format: cell-based; settings: pc-12, 24 h
[2] = Antioxidant activity assessed as DPPH radical scavenging activity after 30 mins; format: functional
[3] = target: T1, Amine oxidase [flavin-containing] B (Homo sapiens, UniProt P27338); experiment: Inhibition of human MAO-B using p-tyramine as substrate preincubated for 15 mins followed by substrate addition measured after 20 mins by fluorescence-based Amplex Red MAO assay
T1 sequence (P27338 whole entry): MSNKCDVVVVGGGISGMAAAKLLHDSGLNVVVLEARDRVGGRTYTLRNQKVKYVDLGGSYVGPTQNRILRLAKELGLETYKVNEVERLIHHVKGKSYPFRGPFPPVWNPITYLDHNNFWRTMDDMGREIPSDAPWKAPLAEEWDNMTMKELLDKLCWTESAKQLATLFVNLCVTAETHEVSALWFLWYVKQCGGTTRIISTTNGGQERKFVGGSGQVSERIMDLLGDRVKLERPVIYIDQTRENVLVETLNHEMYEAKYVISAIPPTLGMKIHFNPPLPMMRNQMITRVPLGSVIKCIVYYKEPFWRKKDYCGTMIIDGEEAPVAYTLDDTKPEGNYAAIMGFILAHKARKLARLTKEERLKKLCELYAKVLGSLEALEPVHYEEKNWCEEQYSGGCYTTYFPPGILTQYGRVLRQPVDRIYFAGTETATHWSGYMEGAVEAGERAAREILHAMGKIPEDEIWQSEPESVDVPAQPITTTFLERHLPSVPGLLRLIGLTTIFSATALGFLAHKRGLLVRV

[4] = target: Amyloid-beta precursor protein (Homo sapiens) (UniProt P05067); experiment: Inhibition of self-induced aggregation of amyloid beta (1 to 42 residues) (unknown origin) at 25 uM incubated for 48 hrs by Thioflavin T fluorescence assay relative to control
Homo sapiens = species: Homo sapiens; experiment: Selectivity index, ratio of IC50 for human MAO-A to IC50 for human MAO-B
[5] = target: T2, Amine oxidase [flavin-containing] A (Homo sapiens, UniProt P21397); experiment: Inhibition of human MAO-A at 200 uM using p-tyramine as substrate preincubated for 15 mins followed by substrate addition measured after 20 mins by fluorescence-based Amplex Red MAO assay
T2 sequence (P21397 whole entry): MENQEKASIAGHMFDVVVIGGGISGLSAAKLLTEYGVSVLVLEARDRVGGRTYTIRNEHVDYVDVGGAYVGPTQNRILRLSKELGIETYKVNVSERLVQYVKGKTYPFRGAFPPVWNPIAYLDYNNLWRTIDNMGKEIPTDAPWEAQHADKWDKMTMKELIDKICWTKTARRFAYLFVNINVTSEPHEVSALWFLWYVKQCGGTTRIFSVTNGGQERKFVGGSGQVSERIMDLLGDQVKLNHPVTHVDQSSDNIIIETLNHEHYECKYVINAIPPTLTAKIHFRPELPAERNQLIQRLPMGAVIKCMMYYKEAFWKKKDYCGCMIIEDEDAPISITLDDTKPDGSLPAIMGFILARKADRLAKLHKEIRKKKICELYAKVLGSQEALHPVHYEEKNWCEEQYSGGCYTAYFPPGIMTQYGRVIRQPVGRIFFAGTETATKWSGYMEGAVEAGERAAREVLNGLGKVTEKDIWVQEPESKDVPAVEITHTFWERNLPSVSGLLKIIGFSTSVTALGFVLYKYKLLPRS

in vitro = experiment: in vitro; set-up: dose or concentration left out as unconfirmed; settings: PAMPA
Description: Permeability of the compound at 100 mg/ml after 16 hrs by BBB-PAMPA method

[6] = Antioxidant activity assessed as ABTS radical scavenging activity at 25 uM after 6 mins; format: functional
PC-12 [7] = experiment: Neuroprotective activity against H2O2-induced cytotoxicity in rat PC12 cells assessed as increase in cell viability at 25 uM preincubated for 24 hrs followed by H2O2 addition and measured after 24 hrs by MTT assay; format: functional, cell-based
[8] = target: T2, Amine oxidase [flavin-containing] A; experiment: Inhibition of human MAO-A using p-tyramine as substrate preincubated for 15 mins followed by substrate addition measured after 20 mins by fluorescence-based Amplex Red MAO assay

Sequence of Amyloid-beta precursor protein (Homo sapiens) (P05067 whole entry, the tested form may be a part): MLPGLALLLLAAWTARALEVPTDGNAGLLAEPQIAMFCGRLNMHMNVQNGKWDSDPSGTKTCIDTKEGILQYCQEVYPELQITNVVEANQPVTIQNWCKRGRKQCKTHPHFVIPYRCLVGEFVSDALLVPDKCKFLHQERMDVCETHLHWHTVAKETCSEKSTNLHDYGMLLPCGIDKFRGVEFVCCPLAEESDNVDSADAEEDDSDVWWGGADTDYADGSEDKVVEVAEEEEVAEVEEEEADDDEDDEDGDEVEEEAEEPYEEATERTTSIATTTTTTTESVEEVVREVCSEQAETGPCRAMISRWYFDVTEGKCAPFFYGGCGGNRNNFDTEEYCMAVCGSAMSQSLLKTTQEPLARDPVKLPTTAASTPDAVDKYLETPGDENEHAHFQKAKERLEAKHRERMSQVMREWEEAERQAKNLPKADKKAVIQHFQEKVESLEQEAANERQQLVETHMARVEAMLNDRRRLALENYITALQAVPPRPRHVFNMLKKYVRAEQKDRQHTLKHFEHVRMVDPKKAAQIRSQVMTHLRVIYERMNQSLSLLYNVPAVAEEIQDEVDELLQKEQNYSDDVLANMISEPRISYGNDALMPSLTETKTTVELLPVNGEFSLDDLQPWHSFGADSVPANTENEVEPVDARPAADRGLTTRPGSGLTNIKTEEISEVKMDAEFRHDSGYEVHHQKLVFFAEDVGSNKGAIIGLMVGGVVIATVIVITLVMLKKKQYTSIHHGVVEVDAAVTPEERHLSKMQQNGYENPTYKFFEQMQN

IC50 [2] [µM]	IC50 [3] [µM]	inhibition [4] [%]	Ratio IC50 (Homo sapiens)	inhibition (INH) [5]	IC50 [8] [µM]	SMILES	Activity (PC-12 [1])	Papp at 16 h (in vitro) [×10⁻⁶ cm/s]	Activity (umolequiv/umol) [6]	Activity (PC-12 [7])
> 200	31.7	54.3	> 3.15	Not Active	–	Oc1ccc(Br)cc1/C=N/c1ccc(OCc2ccccc2)cc1	Non-Toxic	–	–	–
> 200	24.6	61.9	> 4.06	Not Active	–	Cc1ccc(O)c(/C=N/c2ccc(OCc3ccccc3)cc2)c1	Non-Toxic	–	–	–
> 200	10.7	56.6	> 9.34	Not Active	–	COc1ccc(O)c(/C=N/c2ccc(OCc3ccccc3)cc2)c1	Non-Toxic	–	–	–
–	–	–	–	–	–	CCn1cc(C(=O)O)c(=O)c2cc(F)c(N3CCNC(C)C3)c(F)c21 (configuration not stated) [LOMEFLOXACIN]	–	1.59	–	–
82.7	–	–	–	–	–	Oc1ccc(/C=C/c2cc(O)cc(O)c2)cc1 [RESVERATROL]	–	–	1.57	–
> 200	24.4	60.1	> 4.09	Not Active	–	Cc1ccc(/C=N/c2ccc(OCc3ccccc3)cc2)c(O)c1	Non-Toxic	–	–	–
> 200	19.2	73.1	> 5.22	Not Active	–	Oc1ccc2ccccc2c1/C=N/c1ccc(OCc2ccccc2)cc1	Non-Toxic	–	–	–
23.9	10.1	88.5	> 9.86	Not Active	–	Oc1cc(O)c(/C=N/c2ccc(OCc3ccccc3)cc2)c(O)c1	Non-Toxic	–	0.69	inactive
> 200	15.5	53.7	> 6.47	Not Active	–	Cc1cccc(/C=N/c2ccc(OCc3ccccc3)cc2)c1O	Non-Toxic	–	–	–
> 200	15.3	84.4	> 6.54	Not Active	–	Oc1ccc(F)cc1/C=N/c1ccc(OCc2ccccc2)cc1	Non-Toxic	–	–	–
> 200	60.9	70.2	> 1.64	Not Active	–	O=[N+]([O-])c1ccc(O)c(/C=N/c2ccc(OCc3ccccc3)cc2)c1	Non-Toxic	–	–	–
21.3	1.23	49.2	15.3	–	18.8	Oc1ccc(O)c(/C=N/c2ccc(OCc3ccccc3)cc2)c1	Non-Toxic	–	0.97	Active
13.3	6.87	72.5	1.66	–	11.4	Oc1cccc(/C=N/c2ccc(OCc3ccccc3)cc2)c1O	Non-Toxic	–	0.6	Active
> 200	24.8	59.6	> 4.03	Not Active	–	Oc1ccc(Cl)cc1/C=N/c1ccc(OCc2ccccc2)cc1	Non-Toxic	–	–	–
> 200	23.6	69.5	> 4.24	Not Active	–	COc1ccc(/C=N/c2ccc(OCc3ccccc3)cc2)c(O)c1	Non-Toxic	–	–	–
> 200	6.5	53.4	> 15.4	Not Active	–	COc1cccc(/C=N/c2ccc(OCc3ccccc3)cc2)c1O	Non-Toxic	–	–	–
–	–	–	–	–	–	C[C@]12CC[C@@H]3c4ccc(O)cc4CC[C@H]3[C@@H]1CC[C@@H]2O [ESTRADIOL]	–	9.17	–	–
> 200	10.8	66.7	> 9.23	Not Active	–	Oc1c(Br)cc(Br)cc1/C=N/c1ccc(OCc2ccccc2)cc1	Non-Toxic	–	–	–
> 200	25.1	63.3	> 3.98	Not Active	–	Oc1ccccc1/C=N/c1ccc(OCc2ccccc2)cc1	Non-Toxic	–	–	–
> 200	6.78	59.8	> 14.8	Not Active	–	Oc1ccc(/C=N/c2ccc(OCc3ccccc3)cc2)c(O)c1	Non-Toxic	–	–	–

— ChEMBL document CHEMBL4177594, “Design, synthesis, and evaluation of salicyladimine derivatives as multitarget-directed ligands against Alzheimer's disease” (Bioorg Med Chem, 2017)
